Tests used:
Human endothelial cells = test: Angiogenesis in vitro assay (Angiokit, tubule formation, CD31 staining); format: cell-based; conditions: eleventh day
Method: In vitro angiogenic properties of QK. Human endothelial cells were co-cultured with other human cells in a specially designed medium in a 24 well plate. Every three days, QK alone or a combination of QK and VEGF165 (100 ng/ml) was added to the cultures. On the eleventh day, cells were fixed with ice cold 70% ethanol and tubule formation was visualized by staining for anti-human CD31 (PECAM-1).
Angiogenesis in vitro assay. Human endothelial cells were co-cultured with other human cells in a specially designed medium (Angiokit, TCS CellWorks), in a 24 well plates. Every three days, QK in absence or in presence of VEGF165 was added to the cultures. VEGF and suramine (20 μM) were used as positive and negative controls respectively. […] On the eleventh day, cells were fixed with ice cold 70% ethanol and tubule formation was visualized by staining for anti-human CD31 (PECAM-1). Results were scored with the image analysis software, Angiosys software (TCS CellWorks).
In vitro angiogenesis assay. […] Tubule formation was evaluated by positive staining for CD31/PECAM-1, an intercellular adhesion molecule involved in leucocytes diapedesis. We determined the number of cell junctions corrected by the total tubules length.

HUVEC = test: Analysis of caspase 3 activity in HUVEC deprived of FBS; format: cell-based, human; conditions: 4 h
Method: HUVE cells (1×10^4/cm2) were incubated in medium without FBS, in the absence or presence of VEGF (20 ng/ml) and QK (5 ng/ml), at 37° C. in a 5% CO2 atmosphere. After 4 h, caspase 3 activity was determined. Results are expressed as mean values of triplicates.
HUVE cells (1×10^4/cm2) were incubated in medium without FBS, in the absence or presence of VEGF (20 ng/ml) and the indicated peptides (20 ng/ml), at 37° C. in a 5% CO2 atmosphere. After 4 h, caspase 3 activity was determined. Results are expressed as mean values of triplicates.
(§1) Analysis of caspase 3 activity—Cells (2×104) were lysed in a buffer containing Hepes 50 mM, DTT 1 mM, EDTA 0.1 mM, NP-40 0.1%, CHAPS 0.1% and protein quantitation determined. Protein aliquots (20 μg) were incubated with 20 μM Ac-DEVD-AMC (Pharmingen, San Diego, Calif.) in a buffer containing Hepes 50 mM, DTT 1 mM, EDTA 0.1 mM, NP-40 0.1%, CHAPS 0.1%, at 37° C. for 3 h. Caspase 3 activity was determined in the cytosolic extracts by analysing the release of 7-amino-4-methylcoumarin (AMC) from N-acetyl-DEVD-AMC (Thornberry N A, et al. Nature 1992; 356:768-74); the release of AMC was monitored in a spectrofluorometer with an excitation wavelength of 380 nm and emission wavelength of 440 nm.
as §1, with “356: 768-74);” for “356:768-74);”

Sequence: KLTWQELYQLKYKGI [QK]
- formation of new connections (Human endothelial cells; peptide alone): induced the formation of new connections in a dose dependent manner
- formation of new connections in presence of VEGF165 (Human endothelial cells; with VEGF165 100 ng/ml): enhanced the response to VEGF165
- rescue from apoptosis in presence of VEGF (caspase 3) (HUVEC; QK 5 ng/ml with VEGF 20 ng/ml): enhanced the response of HUVEC to VEGF
- rescue of HUVEC from apoptosis (caspase 3 activation) (HUVEC; VEGF 20 ng/ml, QK 5 ng/ml): showed a biological effect similar to VEGF

Source: patent publication US20090305994A1, “Compounds Modulating Vegf Receptor and Uses Thereof” (priority 2005, published 2009)
